Earlier results in US7776886B2, “Cyclopropyl piperidine glycine transporter inhibitors” (Merck Sharp & Dohme Corp., priority 2004, dated 2010).

Tests used:
NMDA receptor = conditions: rat
[1] = mice
[2] = schizophrenia patients poorly responsive to antipsychotic drugs

Row | SMILES | NMDA receptor activity (NMDA receptor) | NMDA receptor-dependent long-term potentiation (NMDA receptor) | pre-pulse inhibition (measure of sensory gating) [1] | effect on positive, negative and cognitive symptoms [2]
1 | CN(CCC(Oc1ccc(-c2ccccc2)cc1)c1ccc(F)cc1)CC(=O)O (stereo not shown) [NFPS, (N-[3-(4′-fluorophenyl)-3-(4′-phenylphenoxy)propyl])sarcosine] | potentiates | potentiates | enhance pre-pulse inhibition | 
2 | CNCC(=O)O [sarcosine] |  |  |  | beneficial effect
